Assay [1] addresses N-type calcium channels in cell membranes isolated from rat brain (Rattus norvegicus, UniProt Q02294). Type of assay: binding.
Assay [2] has as its target P/Q-type calcium channels (Homo sapiens, UniProt O00555). To be noted: cited from earlier work.
A further assay concerns the target N-type calcium channels (Homo sapiens, UniProt Q00975). To be noted: cited from earlier work.

Like-named read-outs stand apart in the source and are kept apart here. Bridges are numbered along the chain shown (N, C = ends). Where no end group is shown, it is not given here.

Chain of P/Q-type calcium channels (O00555 whole entry, looked up): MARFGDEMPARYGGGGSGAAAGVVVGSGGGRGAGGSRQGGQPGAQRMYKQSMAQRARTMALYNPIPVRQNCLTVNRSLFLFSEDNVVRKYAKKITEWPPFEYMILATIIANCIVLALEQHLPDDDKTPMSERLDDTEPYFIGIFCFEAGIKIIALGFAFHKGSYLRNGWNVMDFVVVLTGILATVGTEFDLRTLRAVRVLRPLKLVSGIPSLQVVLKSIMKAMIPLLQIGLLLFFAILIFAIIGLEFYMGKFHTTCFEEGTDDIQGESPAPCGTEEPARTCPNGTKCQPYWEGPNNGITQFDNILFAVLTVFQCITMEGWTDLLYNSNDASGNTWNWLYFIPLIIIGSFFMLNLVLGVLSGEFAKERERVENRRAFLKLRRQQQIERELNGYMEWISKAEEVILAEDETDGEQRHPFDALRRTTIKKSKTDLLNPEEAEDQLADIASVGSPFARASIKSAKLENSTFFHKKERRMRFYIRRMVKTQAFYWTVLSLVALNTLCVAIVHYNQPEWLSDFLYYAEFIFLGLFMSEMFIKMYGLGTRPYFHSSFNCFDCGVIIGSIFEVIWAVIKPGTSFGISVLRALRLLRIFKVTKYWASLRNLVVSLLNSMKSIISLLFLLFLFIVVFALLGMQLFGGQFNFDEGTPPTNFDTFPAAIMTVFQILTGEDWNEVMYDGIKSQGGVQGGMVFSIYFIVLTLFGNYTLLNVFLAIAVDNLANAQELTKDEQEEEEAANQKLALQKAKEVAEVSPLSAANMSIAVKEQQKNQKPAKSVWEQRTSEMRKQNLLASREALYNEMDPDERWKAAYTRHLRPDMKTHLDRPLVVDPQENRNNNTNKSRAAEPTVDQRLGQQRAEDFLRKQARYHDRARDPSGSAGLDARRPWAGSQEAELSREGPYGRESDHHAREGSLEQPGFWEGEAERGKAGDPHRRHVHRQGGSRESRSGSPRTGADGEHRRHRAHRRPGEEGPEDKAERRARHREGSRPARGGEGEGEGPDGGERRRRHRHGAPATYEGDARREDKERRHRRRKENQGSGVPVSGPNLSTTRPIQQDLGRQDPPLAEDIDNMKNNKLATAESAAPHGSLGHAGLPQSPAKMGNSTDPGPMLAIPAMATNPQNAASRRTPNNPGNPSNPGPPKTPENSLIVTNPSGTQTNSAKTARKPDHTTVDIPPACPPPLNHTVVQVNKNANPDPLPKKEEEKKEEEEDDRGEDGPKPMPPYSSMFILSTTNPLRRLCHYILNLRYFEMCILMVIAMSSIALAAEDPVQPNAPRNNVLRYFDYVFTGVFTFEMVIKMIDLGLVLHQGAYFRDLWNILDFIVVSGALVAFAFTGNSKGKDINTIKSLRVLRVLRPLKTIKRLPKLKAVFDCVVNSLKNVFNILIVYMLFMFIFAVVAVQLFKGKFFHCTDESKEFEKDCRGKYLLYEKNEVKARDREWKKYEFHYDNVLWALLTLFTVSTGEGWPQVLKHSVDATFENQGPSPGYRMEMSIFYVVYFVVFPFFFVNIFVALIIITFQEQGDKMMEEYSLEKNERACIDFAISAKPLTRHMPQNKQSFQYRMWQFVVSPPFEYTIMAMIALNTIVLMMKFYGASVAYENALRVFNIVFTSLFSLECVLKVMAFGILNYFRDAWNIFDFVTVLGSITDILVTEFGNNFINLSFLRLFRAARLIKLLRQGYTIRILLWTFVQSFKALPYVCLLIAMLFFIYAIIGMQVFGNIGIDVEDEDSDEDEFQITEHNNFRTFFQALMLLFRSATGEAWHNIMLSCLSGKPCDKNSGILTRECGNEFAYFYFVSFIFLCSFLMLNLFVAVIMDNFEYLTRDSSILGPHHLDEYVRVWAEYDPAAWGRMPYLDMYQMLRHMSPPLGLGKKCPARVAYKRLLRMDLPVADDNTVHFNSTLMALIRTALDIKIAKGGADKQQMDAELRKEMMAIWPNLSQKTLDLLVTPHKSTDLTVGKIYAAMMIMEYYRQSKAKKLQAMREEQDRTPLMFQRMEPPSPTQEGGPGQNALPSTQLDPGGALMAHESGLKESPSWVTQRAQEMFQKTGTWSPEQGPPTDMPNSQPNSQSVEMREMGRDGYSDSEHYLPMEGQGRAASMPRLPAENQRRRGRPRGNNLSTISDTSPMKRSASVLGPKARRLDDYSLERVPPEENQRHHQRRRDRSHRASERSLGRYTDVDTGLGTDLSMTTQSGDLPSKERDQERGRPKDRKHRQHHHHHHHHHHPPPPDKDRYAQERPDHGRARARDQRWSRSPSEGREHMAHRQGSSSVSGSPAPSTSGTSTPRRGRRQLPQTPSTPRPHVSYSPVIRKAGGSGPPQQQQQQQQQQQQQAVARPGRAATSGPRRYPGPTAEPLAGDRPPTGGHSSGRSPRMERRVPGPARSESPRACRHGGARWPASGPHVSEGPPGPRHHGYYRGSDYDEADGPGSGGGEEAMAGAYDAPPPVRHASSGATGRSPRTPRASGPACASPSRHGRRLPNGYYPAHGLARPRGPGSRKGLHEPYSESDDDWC
Chain of N-type calcium channels in cell membranes isolated from rat brain (Q02294 whole entry, looked up): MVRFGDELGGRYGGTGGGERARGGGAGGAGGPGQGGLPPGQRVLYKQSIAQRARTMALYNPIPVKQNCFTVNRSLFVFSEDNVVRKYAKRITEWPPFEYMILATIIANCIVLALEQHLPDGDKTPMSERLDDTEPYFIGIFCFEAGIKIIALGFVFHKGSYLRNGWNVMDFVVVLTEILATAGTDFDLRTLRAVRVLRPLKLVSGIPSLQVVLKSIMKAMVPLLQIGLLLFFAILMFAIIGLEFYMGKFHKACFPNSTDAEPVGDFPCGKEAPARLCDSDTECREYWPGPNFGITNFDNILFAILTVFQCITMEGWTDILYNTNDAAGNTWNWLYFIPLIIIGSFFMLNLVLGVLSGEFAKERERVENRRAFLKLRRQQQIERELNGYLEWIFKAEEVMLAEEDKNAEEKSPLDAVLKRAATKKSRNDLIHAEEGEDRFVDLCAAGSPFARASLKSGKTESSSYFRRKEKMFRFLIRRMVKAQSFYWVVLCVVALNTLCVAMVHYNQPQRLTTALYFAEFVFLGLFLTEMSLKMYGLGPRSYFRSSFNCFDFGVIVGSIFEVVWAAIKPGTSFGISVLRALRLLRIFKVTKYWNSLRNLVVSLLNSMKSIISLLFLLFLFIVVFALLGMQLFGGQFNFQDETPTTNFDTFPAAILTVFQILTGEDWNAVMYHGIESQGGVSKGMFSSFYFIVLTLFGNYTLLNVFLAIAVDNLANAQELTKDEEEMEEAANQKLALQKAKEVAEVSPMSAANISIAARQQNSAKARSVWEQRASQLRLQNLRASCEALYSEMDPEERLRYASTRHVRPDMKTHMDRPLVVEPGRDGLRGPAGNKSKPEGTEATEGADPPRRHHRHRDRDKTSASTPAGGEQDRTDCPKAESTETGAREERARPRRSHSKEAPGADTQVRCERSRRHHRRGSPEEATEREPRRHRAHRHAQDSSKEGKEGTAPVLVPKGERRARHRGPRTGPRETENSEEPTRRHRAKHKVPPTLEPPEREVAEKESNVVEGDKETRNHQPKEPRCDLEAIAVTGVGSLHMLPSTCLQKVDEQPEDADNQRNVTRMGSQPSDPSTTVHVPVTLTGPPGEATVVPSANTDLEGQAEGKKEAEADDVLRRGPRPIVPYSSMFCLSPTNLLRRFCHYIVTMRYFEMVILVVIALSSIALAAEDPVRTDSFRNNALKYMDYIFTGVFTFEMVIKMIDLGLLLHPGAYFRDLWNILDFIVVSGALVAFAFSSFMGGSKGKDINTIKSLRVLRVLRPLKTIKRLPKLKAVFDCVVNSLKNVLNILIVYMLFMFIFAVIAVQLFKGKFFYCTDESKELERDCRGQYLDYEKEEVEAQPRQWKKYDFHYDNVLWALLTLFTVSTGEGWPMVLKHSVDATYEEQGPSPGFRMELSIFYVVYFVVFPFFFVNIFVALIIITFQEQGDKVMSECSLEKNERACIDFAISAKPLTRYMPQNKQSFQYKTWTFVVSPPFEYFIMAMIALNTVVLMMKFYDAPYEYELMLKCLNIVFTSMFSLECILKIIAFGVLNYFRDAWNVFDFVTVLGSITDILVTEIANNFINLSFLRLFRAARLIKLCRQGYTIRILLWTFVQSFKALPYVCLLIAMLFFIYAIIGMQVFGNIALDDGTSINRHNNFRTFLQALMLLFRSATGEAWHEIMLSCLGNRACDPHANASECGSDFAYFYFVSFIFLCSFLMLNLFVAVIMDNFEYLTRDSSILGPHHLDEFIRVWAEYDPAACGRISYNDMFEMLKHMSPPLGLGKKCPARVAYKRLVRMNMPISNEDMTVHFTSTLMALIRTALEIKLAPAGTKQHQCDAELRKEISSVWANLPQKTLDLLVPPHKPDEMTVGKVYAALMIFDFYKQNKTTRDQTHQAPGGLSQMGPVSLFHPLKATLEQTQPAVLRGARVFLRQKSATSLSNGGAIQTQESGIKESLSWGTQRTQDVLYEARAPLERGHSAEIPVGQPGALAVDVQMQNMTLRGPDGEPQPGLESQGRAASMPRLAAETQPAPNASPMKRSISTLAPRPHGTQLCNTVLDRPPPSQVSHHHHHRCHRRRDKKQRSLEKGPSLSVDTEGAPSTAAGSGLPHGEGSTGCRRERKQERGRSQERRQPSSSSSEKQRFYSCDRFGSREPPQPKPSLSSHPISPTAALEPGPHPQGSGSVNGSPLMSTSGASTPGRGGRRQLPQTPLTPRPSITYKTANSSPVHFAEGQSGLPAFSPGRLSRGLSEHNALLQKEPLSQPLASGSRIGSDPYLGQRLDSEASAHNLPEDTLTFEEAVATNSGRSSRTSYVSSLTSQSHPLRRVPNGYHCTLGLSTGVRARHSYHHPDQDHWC

Turning to “KKKCIAKDYGRCKWGGTPCCRGRGCICSIMGTNCECKPRLIMEGLGLA (disulfide 4-20, 12-25, 19-36, 27-34 (inferred)) [ω-Agatoxin, ω-Agatoxin IVA]”, the “relative binding affinity (order of displacement of [125I]GVIA binding)” value in assay [1] is recorded as “lowest relative binding affinity”. Moreover, the “P/Q-type calcium channel inhibition or binding (description)” value in assay [2] (literature) was “has been shown to bind”.

For the substance ω-conotoxin GVIA, the “relative binding affinity (order of displacement of [125I]GVIA binding)” value in assay [1] is on record as “highest relative binding affinity”. Besides, the “N-type calcium channel block (description)” value at N-type calcium channels was “potent and selective blocker”.

For the substance ω-conotoxin MVIIC, the “N-type calcium channel block (description)” value at N-type calcium channels is on record as “weak inhibitor”. Further, the “P/Q-type calcium channel inhibition or binding (description)” value in assay [2] was “potent inhibitor”.

These data come from patent US7927820B2 (priority 2004, dated 2011).
